According to patent US9586995B2, “Compositions and methods of use for (pro)renin receptor” (University of Utah, priority 2012, dated 2017):

Experiments:
α-ENaC = test: Renal ENaC expression in AngII-infused rats (immunoblotting, qRT-PCR); assay type: in vivo, rat; settings: following AngII infusion
Description: FIGS. 28A, 28B, 28C, 28D, 28E, 28F, 28G and 28H show the effect of IMPRO on renal inner medullary ENaC expression during AngThinduced hypertension. The expression of the three subunits of ENaC (α-, β-, and γ-) in the inner medulla of control, AngII and AngII+IM RPO rats was determined by immunobotting (A-E) and qRT-PCR (F-H). N=6 per group. Data are mean+SE.
Renal tissues were lysed and subsequently sonicated in PBS that contained 1% Triton x-100, 250 μM phenylmethanesulfonyl fluoride (PMSF), 2 mM EDTA, and 5 mM dithiothrietol (DTT) (pH 7.5). Protein concentrations were determined by the use of Coomassie reagent. […] of protein for each sample was denatured in boiling water for 10 min, then separated by SDS-PAGE, and transferred onto nitrocellulose membranes. The blots were blocked 1 h with 5% nonfat dry milk in Tris-buffered saline (TBS), followed by incubation for overnight with primary antibody. […] The blots were quantitated by using Imagepro-plus. […]
Epithelial sodium channel (ENaC) is the major sodium channel on the apical membrane of the CD Immunoblotting and qRT-PCR analysis of renal ENaC expression was performed. […] In contrast, α-ENaC protein abundance in the cortex was unaffected. qRT-PCR detected 1.6-fold increase of α-ENaC mRNA expression in the inner medulla, which was abolished by IM PRO (FIG. 28F). […]

[1] = Plasma and urinary aldosterone in AngII-infused rats; assay type: in vivo, rat; settings: following AngII infusion
Description: FIGS. 31A, B, and C show the role of PRR in AngII-induced aldosterone production in vivo and in vitro. Plasma aldosterone concentrations (A) and urinary aldosterone excretion (B) were determined in control, AngII, AngII+IM PRO20, and AngII+IV PRO20 rats. The direct action of PRO20 in aldosterone regulation was tested in primary culture of rat IMCD cells (C). For the in vitro study, the cells were exposed to vehicle, AngII, or AngII+PRO20 and the medium were assayed for aldosterone release. N=3-6 per group. Data are means±SE.
Under anesthesia, blood was collected puncturing vena cava, and plasma was recovered by centrifugation. At the end of experiments, animals were placed in metabolic cages for urine collections. The renal inner medulla was homogenized in 2.6 mM EDTA, 3.4 mM hydroxyquinoline, 5 mM ammonium acetate, 200 μM PMSF, and 0.256 μM dimercaprol. […] Renin activity in urine, tissue homogenates, and cell culture medium was determined by measurement of AngI generation using an ELISA kit and it was performed in the native condition, active renin content with excessive angiotensinogen, and total renin content with excessive angiotensinogen plus trypsinization as previously described. Aldosterone concentrations in plasma, urine, and cell culture medium were measured using a commercial ELISA kit (Cat#:10004377, Cayman Chemical). […]

renal medullary PRR = renal medullary PRR (Rattus norvegicus, UniProt Q6AXS4); test: AngII-induced hypertension in uninephrectomized SD rats, telemetry MAP; assay type: in vivo; settings: AngII 100 ng/kg/min s.c. alone or with intramedullary PRO20 120 μg/kg/d; day 0 MAP 108+5.8
Description: FIGS. 26A, 26B, 26C, 26D, and 26E show the characterization of PRO20 and examination of its effect on AngII-induced hypertension. Comparison of PRO20 (B and D) and the HRP (A and C) in inhibiting prorenin-induced signaling. Primary rat IMCD cells were pretreated for 1 h with PRO20 (1.5 μM) or the HRP (2.0 μM) and then were exposed to 100 nM prorenin for 10 min. ERK1/2 phosphorylation was determined by immunoblotting. (E) Effect of intramedullary delivery of PRO20 on AngII-induced hypertension. Uninephrectomized SD rats were divided into the following three groups: (1) AngII, (2) AngII+IM PRO (intramedullary PRO20 infusion), and (3) AngII+IV PRO20 (intravenous PRO20 infusion). AngII was subcutaneously infused at 100 ng/kg/min via an osmotic mini-pump. IM PRO (PRO20 at 120 μg/kg/d) was performed via a catheter chronically implanted in the renal medulla. To control the spillover, IV PRO (PRO20 at 120 μg/kg/d) was performed via catheterization of jugular vein. Telemetry was performed to monitor mean arterial pressure (MAP) and it was turned on 4 h per day from 5:00 PM to 9:00 PM for 7 days. #p<0.01 vs. intravenous PRO20; *, p<0.05 vs. AngII alone. N=3-6 per group. Data are mean+SE. […]

renal medullary PRR, sequence (Q6AXS4 18-350): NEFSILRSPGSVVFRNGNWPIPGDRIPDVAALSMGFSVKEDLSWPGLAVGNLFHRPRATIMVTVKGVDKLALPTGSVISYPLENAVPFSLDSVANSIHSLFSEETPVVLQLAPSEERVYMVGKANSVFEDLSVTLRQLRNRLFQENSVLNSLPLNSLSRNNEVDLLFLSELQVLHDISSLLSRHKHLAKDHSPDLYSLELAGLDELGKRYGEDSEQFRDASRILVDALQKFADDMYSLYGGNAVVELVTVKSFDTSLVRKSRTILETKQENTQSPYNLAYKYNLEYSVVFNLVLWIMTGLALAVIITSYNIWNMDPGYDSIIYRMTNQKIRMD

## Angiotensin II (DRVYIHPF; Angiotensin-2; UniProt P01019 25-32, looked up) [AngII]
α-ENaC; immunoblotting
  increase in renal medullary α-ENaC protein abundance: 2.2 fold
α-ENaC; qRT-PCR
  increase of α-ENaC mRNA expression in the inner medulla: 1.6 fold
[1]
  increase in aldosterone levels in the plasma: 60%
  increase in aldosterone levels in the urine: 3.2 fold
Renal medullary PRR
  MAP on day 7: 164.7+6.2 mmHg
